Reference: the supplement of paper PMC13380429
± gives the standard deviation of the averaged measurements.

Tests used:
Conditions in all cases: 72 h
Calu-3 [1] = experiment: relative viability EC50 (midpoint between 100% and the lowest measured viability); higher = less toxic
HepG2 [2] = experiment: as above
U2OS [3] = experiment: as above
Caco-2 [4] = experiment: as above
Vero E6 [5] = experiment: as above
Calu-3 [6] = experiment: drug sensitivity score (DSS) for viability; higher = more toxic; extreme values may be limits of the assay
HepG2 [7] = experiment: as above
U2OS [8] = experiment: as above
Caco-2 [9] = experiment: as above
Vero E6 [10] = experiment: as above
Calu-3 [11] = experiment: cell viability relative to DMSO; higher = less toxic
HepG2 [12] = experiment: as above
U2OS [13] = experiment: as above
Caco-2 [14] = experiment: as above
Vero E6 [15] = experiment: as above

SMILES | relative viability EC50 (Calu-3 [1]) [µM] | relative viability EC50 (HepG2 [2]) [µM] | relative viability EC50 (U2OS [3]) [µM] | relative viability EC50 (Caco-2 [4]) [µM] | relative viability EC50 (Vero E6 [5]) [µM] | drug sensitivity score (Calu-3 [6]) | drug sensitivity score (HepG2 [7]) | drug sensitivity score (U2OS [8]) | drug sensitivity score (Caco-2 [9]) | drug sensitivity score (Vero E6 [10]) | cell viability (Calu-3 [11]; 1 nM) [%] | cell viability (Calu-3 [11]; 10 nM) [%] | cell viability (Calu-3 [11]; 100 nM) [%] | cell viability (Calu-3 [11]; 1000 nM) [%] | cell viability (Calu-3 [11]; 10000 nM) [%] | cell viability (HepG2 [12]; 1 nM) [%] | cell viability (HepG2 [12]; 10 nM) [%] | cell viability (HepG2 [12]; 100 nM) [%] | cell viability (HepG2 [12]; 1000 nM) [%] | cell viability (HepG2 [12]; 10000 nM) [%] | cell viability (U2OS [13]; 1 nM) [%] | cell viability (U2OS [13]; 10 nM) [%] | cell viability (U2OS [13]; 100 nM) [%] | cell viability (U2OS [13]; 1000 nM) [%] | cell viability (U2OS [13]; 10000 nM) [%] | cell viability (Caco-2 [14]; 1 nM) [%] | cell viability (Caco-2 [14]; 10 nM) [%] | cell viability (Caco-2 [14]; 100 nM) [%] | cell viability (Caco-2 [14]; 1000 nM) [%] | cell viability (Caco-2 [14]; 10000 nM) [%] | cell viability (Vero E6 [15]; 1 nM) [%] | cell viability (Vero E6 [15]; 10 nM) [%] | cell viability (Vero E6 [15]; 100 nM) [%] | cell viability (Vero E6 [15]; 1000 nM) [%] | cell viability (Vero E6 [15]; 10000 nM) [%]
Clc1cccc(-c2nnnn2Cc2cccnc2)c1Cl | > 10 | > 10 | > 10 | > 10 | > 10 | 0 | 0 | 0 | 0 | 0 | 99.9 | 105 | 96.2 | 98.2 | 97.2 | 101 | 97.5 | 105 | 101 | 103 | 97 | 95.9 | 94.2 | 99.3 | 94.9 | 97.6 | 104 | 99.1 | 98.4 | 91.1 | 106 | 103 | 104 | 99.2 | 102
CCCCCCCCCCCCCCCCNc1ccc(C(=O)O)cc1 [cetaben] | > 10 | > 10 | > 10 | > 10 | > 10 | 0 | 0 | 0 | 0 | 0 | 99.5 | 101 | 98.5 | 90.8 | 95.4 | 101 | 111 | 97.3 | 105 | 99.5 | 99.5 | 97.8 | 102 | 99.2 | 98.5 | 99.2 | 97.4 | 109 | 93.7 | 103 | 99.8 | 99.2 | 94.4 | 98.8 | 101
O=C(O)CCCCCCNC1c2ccccc2CCc2ccccc21 [amineptine] | > 10 | > 10 | > 10 | > 10 | > 10 | 0 | 0 | 0 | 0 | 0 | 101 | 95.3 | 111 | 96.2 | 102 | 109 | 102 | 93 | 98.8 | 105 | 98.8 | 101 | 97.9 | 99 | 98.9 | 90.6 | 99.7 | 99 | 103 | 110 | 104 | 107 | 99 | 100 | 97.2
C[C@H]1C[C@H]2[C@@H]3CCC4=CC(=O)C=C[C@]4(C)[C@@]3(F)[C@@H](O)C[C@]2(C)[C@@]1(O)C(=O)CO [betamethasone] | > 10 | > 10 | > 10 | > 10 | > 10 | 0 | 1.3 ± 1.7 | 0 | 0.25 ± 0.35 | 0.1 ± 0.14 | 106 ± 9.1 | 107 ± 7.4 | 95.05 ± 0.49 | 102 ± 3.6 | 95 ± 3.5 | 101 ± 4.1 | 97 ± 4.6 | 99.4 ± 11 | 90.2 ± 15 | 89.7 ± 4.4 | 99.6 ± 3.8 | 101 ± 1.3 | 94.5 ± 2.9 | 97.5 ± 2.7 | 92.4 ± 1.4 | 101 ± 2.2 | 92.85 ± 0.49 | 84.5 ± 5.2 | 99.1 ± 5.8 | 92.9 ± 12 | 97 ± 4.5 | 91.7 ± 5.5 | 94.5 ± 8.6 | 95.4 ± 4.1 | 92.1 ± 6.5
CCn1c(-c2nonc2N)nc2cncc(CNC3CCNCC3)c21 | > 10 | > 10 | > 10 | > 10 | > 10 | 0 | 3.9 | 1.3 | 0.4 | 0 | 94 | 103 | 102 | 120 | 114 | 94.8 | 104 | 89.1 | 80.6 | 79.7 | 93.9 | 98.2 | 96.7 | 97.3 | 76.3 | 93.6 | 95.1 | 105 | 105 | 80.4 | 93.3 | 104 | 101 | 93.8 | 94.1
O=C(Nc1ccc(Oc2ccc(Cl)cn2)c(Cl)c1)c1ccccn1 | > 10 | > 10 | > 10 | > 10 | > 10 | 0 | 0 | 0 | 0 | 0 | 103 | 108 | 95.1 | 98.6 | 97.7 | 104 | 108 | 109 | 93.7 | 99.1 | 102 | 105 | 99.6 | 104 | 96.2 | 98.1 | 97.8 | 104 | 104 | 93.1 | 101 | 101 | 102 | 96 | 95.8
C[C@@H]1CC[C@H]2C(C)(C)[C@H]3C[C@@]12CC[C@@]3(C)O [cedrol] | > 10 | > 10 | > 10 | > 10 | > 10 | 0 | 0 | 0 | 0 | 0 | 96.9 | 97.1 | 103 | 87.7 | 102 | 97.7 | 102 | 98 | 104 | 118 | 99.9 | 94.5 | 101 | 97.1 | 101 | 97.5 | 88.4 | 100 | 99.4 | 104 | 94.5 | 96.5 | 91.2 | 94.7 | 103
OCc1ccc(O[C@@H]2O[C@H](CO)[C@@H](O)[C@H](O)[C@H]2O)cc1 [gastrodin] | > 10 | > 10 | > 10 | > 10 | > 10 | 0 | 0 | 0 | 0 | 0 | 108 | 94.1 | 94.2 | 110 | 104 | 99.1 | 104 | 104 | 107 | 117 | 97.7 | 99.9 | 100 | 99.7 | 98.1 | 106 | 95.9 | 107 | 92 | 106 | 95.4 | 99.6 | 95.1 | 92.1 | 95.3
CNCCC=C1c2ccccc2C=Cc2ccccc21 [norcyclobenzaprine] | > 10 | > 10 | > 10 | > 10 | > 10 | 0.1 | 0 | 0 | 0 | 0 | 109 | 96.6 | 103 | 105 | 84.8 | 94.7 | 93.4 | 102 | 98.3 | 89.3 | 102 | 98.1 | 100 | 106 | 100 | 94.2 | 96.4 | 97.7 | 102 | 90.5 | 95.9 | 97.5 | 92.6 | 94.5 | 95.2
Nc1c(-c2cccc(C(F)(F)F)c2)nsc1C(=O)O [amflutizole] | > 10 | > 10 | > 10 | > 10 | > 10 | 0 | 0 | 0 | 0 | 0 | 104 | 94.1 | 104 | 97 | 104 | 97.1 | 100 | 92.1 | 108 | 96.9 | 101 | 99.5 | 103 | 96.9 | 98.1 | 96.2 | 96.6 | 99.1 | 99.1 | 107 | 96.8 | 97.8 | 97.7 | 99.1 | 113
Oc1c(I)cc(I)c(O)c1I [riodoxol] | > 10 | > 10 |  | > 10 | > 10 | 0 | 0 |  | 0 | 0 | 103 | 95.1 | 103 | 104 | 98.5 | 97.2 | 91.1 | 101 | 93.2 | 96.9 |  |  |  |  |  | 94.9 | 93.8 | 98.1 | 93.5 | 104 | 101 | 99.3 | 99.6 | 101 | 94.6
O=c1cc(-c2ccc(O)cc2)oc2cc(O)cc(O)c12 [apigenin] | > 10 | > 10 |  | > 10 | > 10 | 0 | 0 |  | 0 | 0 | 104 | 103 | 101 | 99.3 | 94.7 | 92.8 | 105 | 97.7 | 102 | 94 |  |  |  |  |  | 93.9 | 94.2 | 105 | 94.8 | 90.4 | 101 | 101 | 101 | 95.2 | 92
CCCN(CCC)CCc1cccc2c1CC(=O)N2 [ropinirole] | > 10 | > 10 |  | > 10 | > 10 | 0 | 0 |  | 0 | 0 | 92.9 | 106 | 99.7 | 89.8 | 103 | 99.1 | 100 | 87.7 | 103 | 104 |  |  |  |  |  | 97.8 | 108 | 100 | 104 | 105 | 100 | 101 | 101 | 99.3 | 96.3
N#Cc1c(N)nc(SCc2csc(-c3ccc(Cl)cc3)n2)c(C#N)c1-c1ccc(OCCO)cc1 [capadenoson] | > 10 | > 10 | > 10 |  | > 10 | 0 | 0 | 0.6 | 0.8 | 0 | 98 | 102 | 104 | 104 | 95.6 | 89 | 108 | 95.3 | 105 | 107 | 99.2 | 95.2 | 101 | 100 | 79.3 | 102 | 94.6 | 98.8 | 104 | 74.8 | 93 | 98.5 | 95.6 | 102 | 102
CNC(C)(C)Cc1ccccc1 [mephentermine] | > 10 | > 10 |  | > 10 | > 10 | 0 | 0 |  | 0 | 0 | 101 | 97.4 | 95.5 | 102 | 99.8 | 102 | 99.6 | 106 | 104 | 91.4 |  |  |  |  |  | 97.1 | 105 | 104 | 106 | 96.8 | 108 | 97.3 | 97 | 105 | 104
